Test results taken from article PMC8909834, “An Orally Bioavailable and Highly Efficacious Inhibitor of CDK9/FLT3 for the Treatment of Acute Myeloid Leukemia” (Cancers, 2022).

What was measured:
Assay in all cases: Kinase Hotspot radiolabel assay
Type in all cases: biochemical
Conditions in all cases: read-out: % Residual Activity
AKT1 = biological target: T1, AKT1 (Homo sapiens, UniProt P31749)
T1 construct: purchased Reaction Biology Corporation (Kinase HotSpot)
Summary of the method: (§1)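 Inhibition measured by a radiolabel Hotspot kinase assay as part of a 369-kinase specificity panel, with the compound at 1 µM. Kinases inhibited by more than 90% went on to Ki determination.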

AKT3 = biological target: T2, AKT3 (Homo sapiens, UniProt Q9Y243)
T2 construct: purchased Reaction Biology Corporation (Kinase HotSpot)
Summary of the method: as §1

CDC7/DBF4 = biological target: T3, CDC7/DBF4 (Homo sapiens, UniProt O00311)
T3 construct: purchased Reaction Biology Corporation (Kinase HotSpot)
Summary of the method: as §1

CDK2/Cyclin A1 = biological target: T4, CDK2/Cyclin A1 (Homo sapiens, UniProt P24941)
T4 construct: purchased Reaction Biology Corporation (Kinase HotSpot)
Summary of the method: as §1

CDK6/cyclin D1 = biological target: T5, CDK6/cyclin D1 (Homo sapiens, UniProt Q00534)
T5 construct: purchased Reaction Biology Corporation (Kinase HotSpot)
Summary of the method: as §1

CK1a1 = biological target: T6, CK1a1 (Homo sapiens, UniProt P48729)
T6 construct: purchased Reaction Biology Corporation (Kinase HotSpot)
Summary of the method: as §1

CK2a = biological target: T7, CK2a (Homo sapiens, UniProt P68400)
T7 construct: purchased Reaction Biology Corporation (Kinase HotSpot)
Summary of the method: as §1

DAPK1 = biological target: T8, DAPK1 (Homo sapiens, UniProt P53355)
T8 construct: purchased Reaction Biology Corporation (Kinase HotSpot)
Summary of the method: as §1

DMPK = biological target: T9, DMPK (Homo sapiens, UniProt Q09013)
T9 construct: purchased Reaction Biology Corporation (Kinase HotSpot)
Summary of the method: as §1

DRAK1/STK17A = biological target: T10, DRAK1/STK17A (Homo sapiens, UniProt Q9UEE5)
T10 construct: purchased Reaction Biology Corporation (Kinase HotSpot)
Summary of the method: as §1

DYRK1B = biological target: T11, DYRK1B (Homo sapiens, UniProt Q9Y463)
T11 construct: purchased Reaction Biology Corporation (Kinase HotSpot)
Summary of the method: as §1

GRK4 = biological target: T12, GRK4 (Homo sapiens, UniProt P32298)
T12 construct: purchased Reaction Biology Corporation (Kinase HotSpot)
Summary of the method: as §1

HGK/MAP4K4 = biological target: T13, HGK/MAP4K4 (Homo sapiens, UniProt O95819)
T13 construct: purchased Reaction Biology Corporation (Kinase HotSpot)
Summary of the method: as §1

Haspin = biological target: T14, Haspin (Homo sapiens, UniProt Q8TF76)
T14 construct: purchased Reaction Biology Corporation (Kinase HotSpot)
Summary of the method: as §1

IRAK1 = biological target: T15, IRAK1 (Homo sapiens, UniProt P51617)
T15 construct: purchased Reaction Biology Corporation (Kinase HotSpot)
Summary of the method: as §1

JAK3 = biological target: T16, JAK3 (Homo sapiens, UniProt P52333)
T16 construct: purchased Reaction Biology Corporation (Kinase HotSpot)
Summary of the method: as §1

KSR1 = biological target: T17, KSR1 (Homo sapiens, UniProt Q8IVT5)
T17 construct: purchased Reaction Biology Corporation (Kinase HotSpot)
Summary of the method: as §1

LYN B = biological target: T18, LYN B (Homo sapiens, UniProt P07948)
T18 construct: purchased Reaction Biology Corporation (Kinase HotSpot)
Summary of the method: as §1

MEKK2 = biological target: T19, MEKK2 (Homo sapiens, UniProt Q9Y2U5)
T19 construct: purchased Reaction Biology Corporation (Kinase HotSpot)
Summary of the method: as §1

MINK/MINK1 = biological target: T20, MINK/MINK1 (Homo sapiens, UniProt Q8N4C8)
T20 construct: purchased Reaction Biology Corporation (Kinase HotSpot)
Summary of the method: as §1

PHKg1 = biological target: T21, PHKg1 (Homo sapiens, UniProt Q16816)
T21 construct: purchased Reaction Biology Corporation (Kinase HotSpot)
Summary of the method: as §1

PKCd = biological target: T22, PKCd (Homo sapiens, UniProt Q05655)
T22 construct: purchased Reaction Biology Corporation (Kinase HotSpot)
Summary of the method: as §1

PKCepsilon = biological target: T23, PKCepsilon (Homo sapiens, UniProt Q02156)
T23 construct: purchased Reaction Biology Corporation (Kinase HotSpot)
Summary of the method: as §1

PKG1a = biological target: T24, PKG1a (Homo sapiens, UniProt Q13976)
T24 construct: purchased Reaction Biology Corporation (Kinase HotSpot)
Summary of the method: as §1

PKN1/PRK1 = biological target: T25, PKN1/PRK1 (Homo sapiens, UniProt Q16512)
T25 construct: purchased Reaction Biology Corporation (Kinase HotSpot)
Summary of the method: as §1

RON/MST1R = biological target: T26, RON/MST1R (Homo sapiens, UniProt Q04912)
T26 construct: purchased Reaction Biology Corporation (Kinase HotSpot)
Summary of the method: as §1

ROS/ROS1 = biological target: T27, ROS/ROS1 (Homo sapiens, UniProt P08922)
T27 construct: purchased Reaction Biology Corporation (Kinase HotSpot)
Summary of the method: as §1

SLK/STK2 = biological target: T28, SLK/STK2 (Homo sapiens, UniProt Q9H2G2)
T28 construct: purchased Reaction Biology Corporation (Kinase HotSpot)
Summary of the method: as §1

TLK1 = biological target: T29, TLK1 (Homo sapiens, UniProt Q9UKI8)
T29 construct: purchased Reaction Biology Corporation (Kinase HotSpot)
Summary of the method: as §1

TYK2 = biological target: T30, TYK2 (Homo sapiens, UniProt P29597)
T30 construct: purchased Reaction Biology Corporation (Kinase HotSpot)
Summary of the method: as §1

T29 sequence (Q9UKI8 whole entry): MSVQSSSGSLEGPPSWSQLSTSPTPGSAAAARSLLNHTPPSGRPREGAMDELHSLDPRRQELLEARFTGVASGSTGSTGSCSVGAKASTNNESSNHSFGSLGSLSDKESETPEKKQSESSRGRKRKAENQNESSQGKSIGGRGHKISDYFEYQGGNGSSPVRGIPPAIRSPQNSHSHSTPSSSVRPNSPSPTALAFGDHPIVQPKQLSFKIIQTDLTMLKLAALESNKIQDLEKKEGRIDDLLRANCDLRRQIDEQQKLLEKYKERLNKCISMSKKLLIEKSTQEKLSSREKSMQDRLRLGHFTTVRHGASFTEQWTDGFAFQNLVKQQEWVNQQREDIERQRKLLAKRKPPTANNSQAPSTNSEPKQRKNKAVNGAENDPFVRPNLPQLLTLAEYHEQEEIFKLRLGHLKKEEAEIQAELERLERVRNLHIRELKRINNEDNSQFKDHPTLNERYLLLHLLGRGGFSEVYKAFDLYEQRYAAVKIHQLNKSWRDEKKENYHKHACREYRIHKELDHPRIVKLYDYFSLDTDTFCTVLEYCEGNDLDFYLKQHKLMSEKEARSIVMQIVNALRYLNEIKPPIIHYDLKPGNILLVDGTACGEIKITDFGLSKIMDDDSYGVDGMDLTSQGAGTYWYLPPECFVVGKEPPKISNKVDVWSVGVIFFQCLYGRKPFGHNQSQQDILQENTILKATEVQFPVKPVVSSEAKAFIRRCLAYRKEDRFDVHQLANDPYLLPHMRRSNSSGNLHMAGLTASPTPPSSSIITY
T18 sequence (P07948 1-491 isoform P07948-2): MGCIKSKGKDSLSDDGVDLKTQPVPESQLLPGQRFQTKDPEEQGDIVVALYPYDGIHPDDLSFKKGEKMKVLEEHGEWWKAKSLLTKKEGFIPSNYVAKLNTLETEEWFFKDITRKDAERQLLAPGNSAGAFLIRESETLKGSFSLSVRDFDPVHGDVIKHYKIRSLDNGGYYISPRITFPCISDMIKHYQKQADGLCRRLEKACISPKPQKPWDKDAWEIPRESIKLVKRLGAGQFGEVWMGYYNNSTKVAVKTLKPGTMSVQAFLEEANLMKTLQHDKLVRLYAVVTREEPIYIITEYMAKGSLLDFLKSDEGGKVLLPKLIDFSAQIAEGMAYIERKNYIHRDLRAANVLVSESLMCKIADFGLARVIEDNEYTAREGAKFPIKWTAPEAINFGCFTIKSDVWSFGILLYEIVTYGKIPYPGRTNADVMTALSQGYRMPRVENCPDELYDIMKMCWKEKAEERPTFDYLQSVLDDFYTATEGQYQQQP
T23 sequence (Q02156 whole entry): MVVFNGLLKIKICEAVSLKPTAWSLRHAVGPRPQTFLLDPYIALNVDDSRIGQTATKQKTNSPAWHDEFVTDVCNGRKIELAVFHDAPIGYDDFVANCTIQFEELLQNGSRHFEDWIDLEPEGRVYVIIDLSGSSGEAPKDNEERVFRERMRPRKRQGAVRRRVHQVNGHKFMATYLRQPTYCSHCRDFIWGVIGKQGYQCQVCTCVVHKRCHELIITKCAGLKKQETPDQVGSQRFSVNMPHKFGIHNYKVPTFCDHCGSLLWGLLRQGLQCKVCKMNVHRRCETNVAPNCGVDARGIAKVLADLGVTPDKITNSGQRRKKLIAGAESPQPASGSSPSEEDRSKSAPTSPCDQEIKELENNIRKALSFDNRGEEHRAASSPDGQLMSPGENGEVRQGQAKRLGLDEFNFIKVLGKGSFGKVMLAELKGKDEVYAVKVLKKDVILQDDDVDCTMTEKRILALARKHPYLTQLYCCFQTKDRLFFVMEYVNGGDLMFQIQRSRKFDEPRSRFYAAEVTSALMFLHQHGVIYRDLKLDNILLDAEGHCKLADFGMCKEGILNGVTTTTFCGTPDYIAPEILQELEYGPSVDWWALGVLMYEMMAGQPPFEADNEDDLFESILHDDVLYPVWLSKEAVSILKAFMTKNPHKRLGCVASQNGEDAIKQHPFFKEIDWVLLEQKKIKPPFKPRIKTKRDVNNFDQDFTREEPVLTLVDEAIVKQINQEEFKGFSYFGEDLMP
T20 sequence (Q8N4C8 whole entry): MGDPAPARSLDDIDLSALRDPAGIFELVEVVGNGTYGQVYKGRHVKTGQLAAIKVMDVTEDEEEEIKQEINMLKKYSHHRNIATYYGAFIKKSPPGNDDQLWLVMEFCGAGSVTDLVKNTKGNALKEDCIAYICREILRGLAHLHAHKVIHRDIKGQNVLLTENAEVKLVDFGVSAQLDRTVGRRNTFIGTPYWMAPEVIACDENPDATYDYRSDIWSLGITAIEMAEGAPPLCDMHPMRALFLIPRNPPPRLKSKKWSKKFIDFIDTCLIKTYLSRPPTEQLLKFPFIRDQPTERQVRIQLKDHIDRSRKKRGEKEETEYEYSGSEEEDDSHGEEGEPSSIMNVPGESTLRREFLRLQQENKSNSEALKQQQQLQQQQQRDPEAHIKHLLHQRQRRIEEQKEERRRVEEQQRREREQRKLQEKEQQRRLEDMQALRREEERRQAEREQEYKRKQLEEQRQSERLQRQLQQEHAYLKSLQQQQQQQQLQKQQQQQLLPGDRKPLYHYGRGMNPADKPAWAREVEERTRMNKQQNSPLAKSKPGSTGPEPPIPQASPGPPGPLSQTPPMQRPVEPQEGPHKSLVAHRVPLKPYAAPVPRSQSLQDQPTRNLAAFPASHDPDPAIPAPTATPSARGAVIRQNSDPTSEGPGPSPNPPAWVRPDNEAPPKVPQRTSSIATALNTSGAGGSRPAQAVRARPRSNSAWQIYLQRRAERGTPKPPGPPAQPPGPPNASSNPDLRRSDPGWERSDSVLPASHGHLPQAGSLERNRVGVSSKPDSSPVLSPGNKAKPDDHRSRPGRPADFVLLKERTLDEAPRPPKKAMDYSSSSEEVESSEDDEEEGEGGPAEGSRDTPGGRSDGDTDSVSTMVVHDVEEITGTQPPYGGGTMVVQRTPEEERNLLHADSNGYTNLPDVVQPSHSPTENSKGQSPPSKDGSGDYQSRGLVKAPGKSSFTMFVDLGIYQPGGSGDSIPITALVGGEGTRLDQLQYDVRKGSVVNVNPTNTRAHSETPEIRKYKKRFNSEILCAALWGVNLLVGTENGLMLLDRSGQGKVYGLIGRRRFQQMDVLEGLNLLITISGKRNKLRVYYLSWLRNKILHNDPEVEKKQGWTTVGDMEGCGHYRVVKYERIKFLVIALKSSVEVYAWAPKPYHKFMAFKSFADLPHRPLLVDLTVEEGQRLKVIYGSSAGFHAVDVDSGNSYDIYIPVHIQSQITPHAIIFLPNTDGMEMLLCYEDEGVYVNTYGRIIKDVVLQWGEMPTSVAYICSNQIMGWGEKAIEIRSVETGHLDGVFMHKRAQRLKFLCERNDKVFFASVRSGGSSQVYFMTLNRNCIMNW
T8 sequence (P53355 whole entry): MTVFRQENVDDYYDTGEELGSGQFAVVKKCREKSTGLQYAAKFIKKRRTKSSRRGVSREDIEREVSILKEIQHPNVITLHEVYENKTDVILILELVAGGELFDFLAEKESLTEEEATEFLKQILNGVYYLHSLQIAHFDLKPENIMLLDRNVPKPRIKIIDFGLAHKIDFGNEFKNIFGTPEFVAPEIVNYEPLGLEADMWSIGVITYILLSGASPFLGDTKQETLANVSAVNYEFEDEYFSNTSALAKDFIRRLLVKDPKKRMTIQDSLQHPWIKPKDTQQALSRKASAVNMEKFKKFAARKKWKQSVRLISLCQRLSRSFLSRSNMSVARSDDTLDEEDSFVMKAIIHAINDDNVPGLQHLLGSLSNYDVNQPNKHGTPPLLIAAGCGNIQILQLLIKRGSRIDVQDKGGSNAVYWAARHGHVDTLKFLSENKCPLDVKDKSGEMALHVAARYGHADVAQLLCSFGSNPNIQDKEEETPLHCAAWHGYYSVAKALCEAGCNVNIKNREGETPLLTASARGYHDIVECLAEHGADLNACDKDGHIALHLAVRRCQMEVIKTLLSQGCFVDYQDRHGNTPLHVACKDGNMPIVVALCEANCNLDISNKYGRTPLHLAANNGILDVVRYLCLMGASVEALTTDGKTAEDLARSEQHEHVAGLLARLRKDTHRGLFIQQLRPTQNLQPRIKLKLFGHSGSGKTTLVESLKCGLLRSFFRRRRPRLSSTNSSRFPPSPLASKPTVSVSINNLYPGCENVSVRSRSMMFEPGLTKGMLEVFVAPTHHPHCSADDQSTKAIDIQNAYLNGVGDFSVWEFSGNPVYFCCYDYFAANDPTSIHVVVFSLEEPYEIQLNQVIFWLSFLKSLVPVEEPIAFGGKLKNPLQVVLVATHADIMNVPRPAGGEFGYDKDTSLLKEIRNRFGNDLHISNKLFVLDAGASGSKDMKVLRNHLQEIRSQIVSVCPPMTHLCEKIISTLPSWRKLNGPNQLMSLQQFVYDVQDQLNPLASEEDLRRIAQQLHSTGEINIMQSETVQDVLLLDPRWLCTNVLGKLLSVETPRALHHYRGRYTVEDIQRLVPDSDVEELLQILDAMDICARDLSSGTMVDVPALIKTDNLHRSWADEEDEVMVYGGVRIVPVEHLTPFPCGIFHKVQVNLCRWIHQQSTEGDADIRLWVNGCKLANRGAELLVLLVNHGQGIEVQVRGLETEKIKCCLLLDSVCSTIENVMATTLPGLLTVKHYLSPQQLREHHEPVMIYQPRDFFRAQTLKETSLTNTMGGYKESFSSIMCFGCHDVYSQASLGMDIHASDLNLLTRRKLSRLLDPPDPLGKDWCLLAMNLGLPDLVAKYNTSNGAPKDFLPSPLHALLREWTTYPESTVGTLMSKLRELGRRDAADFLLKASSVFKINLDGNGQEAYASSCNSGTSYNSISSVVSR
T6 sequence (P48729 whole entry): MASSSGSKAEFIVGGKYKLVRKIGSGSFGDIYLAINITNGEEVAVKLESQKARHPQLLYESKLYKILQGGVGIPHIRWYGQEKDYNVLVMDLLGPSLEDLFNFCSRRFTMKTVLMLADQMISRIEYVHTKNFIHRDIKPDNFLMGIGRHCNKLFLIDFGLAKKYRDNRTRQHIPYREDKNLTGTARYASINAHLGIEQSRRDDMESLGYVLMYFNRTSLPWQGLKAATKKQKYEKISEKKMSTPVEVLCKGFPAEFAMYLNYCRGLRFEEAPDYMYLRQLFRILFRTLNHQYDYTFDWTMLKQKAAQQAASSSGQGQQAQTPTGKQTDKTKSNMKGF

## Cc1cnc(N[C@H]2CC[C@H](N)CC2)nc1-c1cnc2ccc(-c3ccccc3)cn12 [CDDD11-8]
AKT1
  remaining activity at 1 µM: 95%
AKT3
  remaining activity at 1 µM: 77.2%
CDC7/DBF4
  remaining activity at 1 µM: 109%
CDK2/Cyclin A1
  remaining activity at 1 µM: 55.7%
CDK6/cyclin D1
  remaining activity at 1 µM: 80.7%
CK1a1
  remaining activity at 1 µM: 102%
CK2a
  remaining activity at 1 µM: 80.3%
DAPK1
  remaining activity at 1 µM: 96.1%
DMPK
  remaining activity at 1 µM: 96.2%
DRAK1/STK17A
  remaining activity at 1 µM: 92.5%
DYRK1B
  remaining activity at 1 µM: 22.2%
GRK4
  remaining activity at 1 µM: 98.2%
HGK/MAP4K4
  remaining activity at 1 µM: 32.8%
Haspin
  remaining activity at 1 µM: 65.1%
IRAK1
  remaining activity at 1 µM: 91.9%
JAK3
  remaining activity at 1 µM: 48.5%
KSR1
  remaining activity at 1 µM: 92.3%
LYN B
  remaining activity at 1 µM: 88.5%
MEKK2
  remaining activity at 1 µM: 105%
MINK/MINK1
  remaining activity at 1 µM: 8.86%
PHKg1
  remaining activity at 1 µM: 59.2%
PKCd
  remaining activity at 1 µM: 47.6%
PKCepsilon
  remaining activity at 1 µM: 54.7%
PKG1a
  remaining activity at 1 µM: 61.7%
PKN1/PRK1
  remaining activity at 1 µM: 63.8%
RON/MST1R
  remaining activity at 1 µM: 97.9%
ROS/ROS1
  remaining activity at 1 µM: 41.5%
SLK/STK2
  remaining activity at 1 µM: 89.8%
TLK1
  remaining activity at 1 µM: 110%
TYK2
  remaining activity at 1 µM: 93.2%
